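Step 1: Grow cells in 96-well plates. Step 2: Expose to compound for 48 hours at 5 concentrations. Step 3: Interpolate endpoints linearly; if unreached, use highest concentration. The concentration for full growth arrest is given as TGI.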
Legend:
Test in all cases: growth of human tumour cells (NCI), 48 h
[1] = system: SNB-19 CNS
[2] = system: OVCAR-5 ovarian
[3] = system: SN12C renal
[4] = system: IGROV1 ovarian
[5] = system: ACHN renal
[6] = system: DMS 273 small cell lung
[7] = system: A498 renal
[8] = system: M19-MEL melanoma
[9] = system: HCT-116 colon
[10] = system: HCT-15 colon
[11] = system: 786-0 renal
[12] = system: A549 NSCLC
[13] = system: SR leukemia
[14] = system: DMS 114 small cell lung
[15] = system: LXFL 529 NSCLC
[16] = system: SF-268 CNS
[17] = system: HOP-62 NSCLC
[18] = system: SW-620 colon
[19] = system: OVCAR-8 ovarian
[20] = system: K-562 leukemia
[21] = system: UO-31 renal
[22] = system: EKVX NSCLC
[23] = system: COLO 205 colon
[24] = system: HOP-18 NSCLC
[25] = system: SK-MEL-5 melanoma
[26] = system: NCI-H460 lung
[27] = system: RPMI-8226 leukemia
[28] = system: DLD-1 colon
[29] = system: U251 CNS
[30] = system: SF-539 CNS
[31] = system: UACC-257 melanoma
[32] = system: SNB-75 CNS
[33] = system: NCI-H23 lung
[34] = system: HT29 colon
[35] = system: SNB-78 CNS
[36] = system: KM12 colon
[37] = system: HL-60(TB) leukemia
[38] = system: HOP-92 NSCLC
[39] = system: SK-OV-3 ovarian
[40] = system: MOLT-4 leukemia
[41] = system: SK-MEL-28 melanoma
[42] = system: SF-295 CNS
[43] = system: MALME-3M melanoma
[44] = system: OVCAR-3 ovarian
[45] = system: CAKI-1 renal
[46] = system: NCI-H522 lung
[47] = system: RXF-631 renal
[48] = system: NCI-H226 lung
[49] = system: SK-MEL-2 melanoma
[50] = system: M14 melanoma
[51] = system: KM20L2 colon
[52] = system: OVCAR-4 ovarian
[53] = system: TK-10 renal
[54] = system: CCRF-CEM leukemia
[55] = system: UACC-62 melanoma
[56] = system: LOX IMVI melanoma
[57] = system: HCC-2998 colon

Measured: TGI

CCNC(=O)COc1ccc(Cl)cc1Cl
not listed: [52] | [53] | [54] | [55] | [56] | [57]
> 100 µM: all other assays above

COC(=O)C1(O)CC(=O)CCC1c1ccc(OC)cc1 (stereo unspecified)
not listed: [8] | [15]
> 100 µM: all other assays above
